Assay results taken from patent publication US10798941B2, “Microbiocidal oxadiazole derivatives” (SYNGENTA PARTICIPATIONS AG, priority 2016, dated 2020).

How the values were obtained:
[1] = tested on: Puccinia recondita f. Sp. Tritici; test: Puccinia recondita f. sp. tritici / wheat / leaf disc preventative (brown rust); format: in vivo; details: foliar, 168 h, 200 ppm in the applied formulation, wheat leaf segments cv. Kanzler, preventative, inoculated 1 day after application, assessed 7 to 9 days after application, vs untreated, read-out: disease control
Outline: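 Preventative leaf-segment test: spray application of diluted formulated compound on wheat cv. Kanzler, spore inoculation after 1 day. Percent control relative to untreated segments rated 7 to 9 days post-application, with incubation at 19° C, 75% relative humidity, 12 h photoperiod.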

[2] = tested on: Puccinia recondita f. Sp. Tritici; test: Puccinia recondita f. sp. tritici / wheat / leaf disc curative (brown rust); format: in vivo; details: foliar, 144 h, 200 ppm in the applied formulation, wheat leaf segments cv. Kanzler, applied 1 day after inoculation, assessed 6 to 8 days after application, vs untreated, read-out: disease control
Outline: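 Curative leaf-segment test, cv. Kanzler: spore inoculation, dark storage 19° C/75% RH, compound spray 1 day post-inoculation. Then 12 h light/12 h dark, 19° C, 75% RH. Read-out: % disease control vs untreated check, 6–8 d after application.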

Phakopsora pachyrhizi = Phakopsora pachyrhizi / soybean / leaf disc preventative (Asian soybean rust); format: in vivo; details: foliar, 288 h, 200 ppm in the applied formulation, soybean leaf disks, inoculated one day after application, assessed 12 to 14 days after application, vs untreated, read-out: disease control
Outline: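 Read-out is percent disease control relative to untreated check discs, assessed once untreated discs show adequate disease, 12 to 14 days after application. Compounds, tested at 200 ppm in the applied formulation, are sprayed onto soybean leaf discs one day before inoculation with a spore suspension.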

[3] = tested on: Glomerella Lagenarium (Colletotrichum Lagenarium); test: Glomerella lagenarium (Colletotrichum lagenarium) liquid culture / cucumber / preventative (anthracnose); format: cell-based; details: Colletotrichum orbiculare; 20 ppm in the applied formulation; liquid culture in PDB, 24° C., inhibition of growth measured photometrically 3 to 4 days after application, vs untreated; read-out: disease control
Outline: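 Conidia from cryogenic storage were mixed into potato dextrose broth. This was added to compound diluted from DMSO into 0.025% Tween20, tested at 20 ppm. Plates were incubated in the dark at 24 °C and 96% relative humidity, and growth was read photometrically after 2–7 days as % activity versus untreated check.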

CCCSc1ncn(Cc2ccc(-c3noc(C(F)(F)F)n3)cc2)n1 [Compound 1.206, 3-[4-[(3-propylsulfanyl-1,2,4-triazol-1-yl)methyl]phenyl]-5-(trifluoromethyl)-1,2,4-oxadiazole]
≥ 80%: pest or weed control at 200 ppm [1] | pest or weed control at 200 ppm [2] | pest or weed control at 200 ppm (Phakopsora pachyrhizi) | inhibition of growth at 20 ppm [3]

CCCSc1ncnn1Cc1ccc(-c2noc(C(F)(F)F)n2)cc1 [Compound 1.207, 3-[4-[(5-propylsulfanyl-1,2,4-triazol-1-yl)methyl]phenyl]-5-(trifluoromethyl)-1,2,4-oxadiazole]
≥ 80%: pest or weed control at 200 ppm [1] | pest or weed control at 200 ppm [2] | pest or weed control at 200 ppm (Phakopsora pachyrhizi) | inhibition of growth at 20 ppm [3]

CCSc1ncn(Cc2ccc(-c3noc(C(F)(F)F)n3)cc2)n1 [Compound 1.208, 3-[4-[(3-ethylsulfanyl-1,2,4-triazol-1-yl)methyl]phenyl]-5-(trifluoromethyl)-1,2,4-oxadiazole]
≥ 80%: pest or weed control at 200 ppm [1] | pest or weed control at 200 ppm [2] | pest or weed control at 200 ppm (Phakopsora pachyrhizi) | inhibition of growth at 20 ppm [3]

FC(F)(F)c1nc(-c2ccc(Cn3cnnc3SCc3ccccc3)cc2)no1 [Compound 1.213, 3-[4-[(3-benzylsulfanyl-1,2,4-triazol-4-yl)methyl]phenyl]-5-(trifluoromethyl)-1,2,4-oxadiazole]
≥ 80%: pest or weed control at 200 ppm [1] | pest or weed control at 200 ppm [2] | pest or weed control at 200 ppm (Phakopsora pachyrhizi) | inhibition of growth at 20 ppm [3]

COc1nc(N)n(Cc2ccc(-c3noc(C(F)(F)F)n3)cc2)n1 [Compound 1.214, 5-methoxy-2-[[4-[5-(trifluoromethyl)-1,2,4-oxadiazol-3-yl]phenyl]methyl]-1,2,4-triazol-3-amine]
≥ 80%: pest or weed control at 200 ppm [1] | pest or weed control at 200 ppm [2] | pest or weed control at 200 ppm (Phakopsora pachyrhizi) | inhibition of growth at 20 ppm [3]

COc1nc(N)nn1Cc1ccc(-c2noc(C(F)(F)F)n2)cc1 [Compound 1.215, 5-methoxy-1-[[4-[5-(trifluoromethyl)-1,2,4-oxadiazol-3-yl]phenyl]methyl]-1,2,4-triazol-3-amine]
≥ 80%: pest or weed control at 200 ppm [1] | pest or weed control at 200 ppm [2] | pest or weed control at 200 ppm (Phakopsora pachyrhizi) | inhibition of growth at 20 ppm [3]

CCOC(=O)c1cccnc1-c1ccn(Cc2ccc(-c3noc(C(F)(F)F)n3)cc2)n1 [Compound 1.219, ethyl 2-[1-[[4-[5-(trifluoromethyl)-1,2,4-oxadiazol-3-yl]phenyl]methyl]pyrazol-3-yl]pyridine-3-carboxylate]
≥ 80%: pest or weed control at 200 ppm [1] | pest or weed control at 200 ppm [2] | pest or weed control at 200 ppm (Phakopsora pachyrhizi) | inhibition of growth at 20 ppm [3]

Nc1nc(C(F)F)nn1Cc1ccc(-c2noc(C(F)(F)F)n2)cc1 [Compound 1.222, 5-(difluoromethyl)-2-[[4-[5-(trifluoromethyl)-1,2,4-oxadiazol-3-yl]phenyl]methyl]-1,2,4-triazol-3-amine]
≥ 80%: pest or weed control at 200 ppm [1] | pest or weed control at 200 ppm [2] | pest or weed control at 200 ppm (Phakopsora pachyrhizi) | inhibition of growth at 20 ppm [3]

FC(F)(F)c1nc(-c2ccc(Cn3cnnc3)cc2)no1 [Compound 1.226, 3-[4-(1,2,4-triazol-4-ylmethyl)phenyl]-5-(trifluoromethyl)-1,2,4-oxadiazole]
≥ 80%: pest or weed control at 200 ppm [1] | pest or weed control at 200 ppm [2] | pest or weed control at 200 ppm (Phakopsora pachyrhizi) | inhibition of growth at 20 ppm [3]

FC(F)(F)c1nc(-c2ccc(Cn3cnc(-c4ccc(Cl)cc4)c3)cc2)no1 [Compound 1.229, 3-[4-[[4-(4-chlorophenyl)imidazol-1-yl]methyl]phenyl]-5-(trifluoromethyl)-1,2,4-oxadiazole]
≥ 80%: pest or weed control at 200 ppm [1] | pest or weed control at 200 ppm [2] | pest or weed control at 200 ppm (Phakopsora pachyrhizi) | inhibition of growth at 20 ppm [3]

COc1nc(Br)n(Cc2ccc(-c3noc(C(F)(F)F)n3)cc2)n1 [Compound 1.232, 3-[4-[(5-bromo-3-methoxy-1,2,4-triazol-1-yl)methyl]phenyl]-5-(trifluoromethyl)-1,2,4-oxadiazole]
≥ 80%: pest or weed control at 200 ppm [1] | pest or weed control at 200 ppm [2] | pest or weed control at 200 ppm (Phakopsora pachyrhizi) | inhibition of growth at 20 ppm [3]

COc1nc(Br)nn1Cc1ccc(-c2noc(C(F)(F)F)n2)cc1 [Compound 1.233, 3-[4-[(3-bromo-5-methoxy-1,2,4-triazol-1-yl)methyl]phenyl]-5-(trifluoromethyl)-1,2,4-oxadiazole]
≥ 80%: pest or weed control at 200 ppm [1] | pest or weed control at 200 ppm [2] | pest or weed control at 200 ppm (Phakopsora pachyrhizi) | inhibition of growth at 20 ppm [3]

COC(=O)c1cnn(Cc2ccc(-c3noc(C(F)(F)F)n3)cc2)c1C1CC1 [Compound 1.236, methyl 5-cyclopropyl-1-[[4-[5-(trifluoromethyl)-1,2,4-oxadiazol-3-yl]phenyl]methyl]pyrazole-4-carboxylate]
≥ 80%: pest or weed control at 200 ppm [1] | pest or weed control at 200 ppm [2] | pest or weed control at 200 ppm (Phakopsora pachyrhizi) | inhibition of growth at 20 ppm [3]

COC(=O)c1cn(Cc2ccc(-c3noc(C(F)(F)F)n3)cc2)nc1C1CC1 [Compound 1.237, methyl 3-cyclopropyl-1-[[4-[5-(trifluoromethyl)-1,2,4-oxadiazol-3-yl]phenyl]methyl]pyrazole-4-carboxylate]
≥ 80%: pest or weed control at 200 ppm [1] | pest or weed control at 200 ppm [2] | pest or weed control at 200 ppm (Phakopsora pachyrhizi) | inhibition of growth at 20 ppm [3]

COCc1nn(Cc2ccc(-c3noc(C(F)(F)F)n3)cc2)cc1C(=O)OC [Compound 1.238, methyl 3-(methoxymethyl)-1-[[4-[5-(trifluoromethyl)-1,2,4-oxadiazol-3-yl]phenyl]methyl]pyrazole-4-carboxylate]
≥ 80%: pest or weed control at 200 ppm [1] | pest or weed control at 200 ppm [2] | pest or weed control at 200 ppm (Phakopsora pachyrhizi) | inhibition of growth at 20 ppm [3]

COCc1c(C(=O)OC)cnn1Cc1ccc(-c2noc(C(F)(F)F)n2)cc1 [Compound 1.239, methyl 5-(methoxymethyl)-1-[[4-[5-(trifluoromethyl)-1,2,4-oxadiazol-3-yl]phenyl]methyl]pyrazole-4-carboxylate]
≥ 80%: pest or weed control at 200 ppm [1] | pest or weed control at 200 ppm [2] | pest or weed control at 200 ppm (Phakopsora pachyrhizi) | inhibition of growth at 20 ppm [3]

FC(F)(F)c1nc(-c2ccc(Cn3ccc(Cl)n3)cc2)no1 [Compound 1.243, 3-[4-[(3-chloropyrazol-1-yl)methyl]phenyl]-5-(trifluoromethyl)-1,2,4-oxadiazole]
≥ 80%: pest or weed control at 200 ppm [1] | pest or weed control at 200 ppm [2] | pest or weed control at 200 ppm (Phakopsora pachyrhizi) | inhibition of growth at 20 ppm [3]

FC(F)(F)c1nc(-c2ccc(Cn3cccc4nnnc3-4)cc2)no1 [Compound 1.244, 3-[4-(triazolo[4,5-b]pyridin-4-ylmethyl)phenyl]-5-(trifluoromethyl)-1,2,4-oxadiazole]
≥ 80%: pest or weed control at 200 ppm [1] | pest or weed control at 200 ppm [2] | pest or weed control at 200 ppm (Phakopsora pachyrhizi) | inhibition of growth at 20 ppm [3]

Cc1cc(C)n(Cc2ccc(-c3noc(C(F)(F)F)n3)c(F)c2)n1 [Compound 1.253, 3-[4-[(3,5-dimethylpyrazol-1-yl)methyl]-2-fluoro-phenyl]-5-(trifluoromethyl)-1,2,4-oxadiazole]
≥ 80%: pest or weed control at 200 ppm [1] | pest or weed control at 200 ppm [2] | pest or weed control at 200 ppm (Phakopsora pachyrhizi) | inhibition of growth at 20 ppm [3]

N#Cc1ncnn1Cc1ccc(-c2noc(C(F)(F)F)n2)c(F)c1 [Compound 1.256, 2-[[3-fluoro-4-[5-(trifluoromethyl)-1,2,4-oxadiazol-3-yl]phenyl]methyl]-1,2,4-triazole-3-carbonitrile]
≥ 80%: pest or weed control at 200 ppm [1] | pest or weed control at 200 ppm [2] | pest or weed control at 200 ppm (Phakopsora pachyrhizi) | inhibition of growth at 20 ppm [3]

CC(C)OC(=O)c1cnn(Cc2ccc(-c3noc(C(F)(F)F)n3)cc2)c1 [Compound 1.263, isopropyl 1-[[4-[5-(trifluoromethyl)-1,2,4-oxadiazol-3-yl]phenyl]methyl]pyrazole-4-carboxylate]
≥ 80%: pest or weed control at 200 ppm [1] | pest or weed control at 200 ppm [2] | pest or weed control at 200 ppm (Phakopsora pachyrhizi) | inhibition of growth at 20 ppm [3]

CC(C)ON=Cc1cnn(Cc2ccc(-c3noc(C(F)(F)F)n3)cc2)c1 [Compound 1.288, N-isopropoxy-1-[1-[[4-[5-(trifluoromethyl)-1,2,4-oxadiazol-3-yl]phenyl]methyl]pyrazol-4-yl]methanimine]
≥ 80%: pest or weed control at 200 ppm [1] | pest or weed control at 200 ppm [2] | pest or weed control at 200 ppm (Phakopsora pachyrhizi) | inhibition of growth at 20 ppm [3]

Cc1cc(C)n(C(C)c2ccc(-c3noc(C(F)(F)F)n3)cc2)n1 (centres unmarked) [Compound 1.303, 3-[4-[1-(3,5-dimethylpyrazol-1-yl)ethyl]phenyl]-5-(trifluoromethyl)-1,2,4-oxadiazole]
≥ 80%: pest or weed control at 200 ppm [1] | pest or weed control at 200 ppm [2] | pest or weed control at 200 ppm (Phakopsora pachyrhizi) | inhibition of growth at 20 ppm [3]
